Data published in ChEMBL document CHEMBL3885861, “Open TG-GATES”.

Species on record: Rattus norvegicus
Experiment: Open TG-GATES - Regimen: Single
Format: toxicity, organism-based, Sprague-Dawley
Parameters: regimen Single, gender Male, age 6 weeks
Settings: in vivo, po, 600 mg/kg, route gavage, dose level High; for APTT / Bas / Eos / Fbg / Hb / Ht / Lym / MCH / MCHC / MCV / Mono / Neu / PT / Plat / RBC / Ret / WBC: tissue Blood; for KIDNEY_L / KIDNEY_R / KIDNEY_TOTAL: tissue Kidney; for LIVER: tissue Liver; for A/G / ALP / ALT / AST / BUN / CRE / Ca / Cl / DBIL / GLC / IP / K / LDH / Na / PL / RALB / TBIL / TC / TG / TP / gamma-GTP: tissue Plasma

CCOC(=O)[C@H](CCc1ccccc1)N[C@@H](C)C(=O)N1CCC[C@H]1C(=O)O
TERMINAL_BW (3 h): 218.7 g
APTT (3 h): 16.5 s
Bas (3 h): 0%
Eos (3 h): 1.4%
Fbg (3 h): 212 mg/dL
Hb (3 h): 13.3 g/dL
Ht (3 h): 40.4%
Lym (3 h): 74%
MCH (3 h): 21.6 pg
MCHC (3 h): 32.9%
MCV (3 h): 65.9 fL
Mono (3 h): 9.8%
Neu (3 h): 14.6%
PT (3 h): 12 s
Plat (3 h): 109.7 x10_4/uL
RBC (3 h): 614.2 x10_4/ul
Ret (3 h): 8.9%
WBC (3 h): 93.4 x10_2/uL
KIDNEY_L (3 h): 1 g
KIDNEY_R (3 h): 1 g
KIDNEY_TOTAL (3 h): 1.9 g
LIVER (3 h): 10 g
A/G (3 h): 2
ALP (3 h): 719.2 IU/L
ALT (3 h): 83.4 IU/L
AST (3 h): 70.2 IU/L
BUN (3 h): 22.8 mg/dL
CRE (3 h): 0.6 mg/dL
Ca (3 h): 10.3 mg/dL
Cl (3 h): 106.8 meq/L
DBIL (3 h): 0.022 mg/dL
GLC (3 h): 201 mg/dL
IP (3 h): 9 mg/dL
K (3 h): 4.9 meq/L
LDH (3 h): 103.4 IU/L
Na (3 h): 138.6 meq/L
PL (3 h): 125.4 mg/dL
RALB (3 h): 3.6 g/dL
TBIL (3 h): 0.3 mg/dL
TC (3 h): 73.2 mg/dL
TG (3 h): 59.4 mg/dL
TP (3 h): 5.4 g/dL
gamma-GTP (3 h): 2.4 IU/L
TERMINAL_BW (6 h): 215.5 g
APTT (6 h): 16.6 s
Bas (6 h): 0%
Eos (6 h): 1.2%
Fbg (6 h): 211.2 mg/dL
Hb (6 h): 13.3 g/dL
Ht (6 h): 40.9%
Lym (6 h): 75.4%
MCH (6 h): 21.2 pg
MCHC (6 h): 32.7%
MCV (6 h): 64.8 fL
Mono (6 h): 7.4%
Neu (6 h): 16.2%
PT (6 h): 11.9 s
Plat (6 h): 113.3 x10_4/uL
RBC (6 h): 632.4 x10_4/ul
Ret (6 h): 8.3%
WBC (6 h): 96.5 x10_2/uL
KIDNEY_L (6 h): 1 g
KIDNEY_R (6 h): 1 g
KIDNEY_TOTAL (6 h): 2 g
LIVER (6 h): 9.1 g
A/G (6 h): 2.2
ALP (6 h): 701.6 IU/L
ALT (6 h): 82.8 IU/L
AST (6 h): 75.8 IU/L
BUN (6 h): 28.2 mg/dL
CRE (6 h): 0.6 mg/dL
Ca (6 h): 10.5 mg/dL
Cl (6 h): 107.2 meq/L
DBIL (6 h): 0.022 mg/dL
GLC (6 h): 207 mg/dL
IP (6 h): 9.5 mg/dL
K (6 h): 5.2 meq/L
LDH (6 h): 100.8 IU/L
Na (6 h): 138 meq/L
PL (6 h): 126.2 mg/dL
RALB (6 h): 3.6 g/dL
TBIL (6 h): 0.5 mg/dL
TC (6 h): 68.2 mg/dL
TG (6 h): 36.8 mg/dL
TP (6 h): 5.2 g/dL
gamma-GTP (6 h): 1.6 IU/L
TERMINAL_BW (9 h): 218.5 g
APTT (9 h): 16.2 s
Bas (9 h): 0%
Eos (9 h): 1%
Fbg (9 h): 208.8 mg/dL
Hb (9 h): 12.7 g/dL
Ht (9 h): 39.2%
Lym (9 h): 78.6%
MCH (9 h): 22.1 pg
MCHC (9 h): 32.4%
MCV (9 h): 68.3 fL
Mono (9 h): 4.2%
Neu (9 h): 16.2%
PT (9 h): 11.6 s
Plat (9 h): 111.9 x10_4/uL
RBC (9 h): 575.2 x10_4/ul
Ret (9 h): 9.9%
WBC (9 h): 91.7 x10_2/uL
KIDNEY_L (9 h): 1 g
KIDNEY_R (9 h): 1 g
KIDNEY_TOTAL (9 h): 1.9 g
LIVER (9 h): 8.5 g
A/G (9 h): 1.8
ALP (9 h): 827.2 IU/L
ALT (9 h): 56.2 IU/L
AST (9 h): 65.6 IU/L
BUN (9 h): 40.8 mg/dL
CRE (9 h): 0.5 mg/dL
Ca (9 h): 10.9 mg/dL
Cl (9 h): 109 meq/L
DBIL (9 h): 0.032 mg/dL
GLC (9 h): 196.4 mg/dL
IP (9 h): 11.1 mg/dL
K (9 h): 5.8 meq/L
LDH (9 h): 66 IU/L
Na (9 h): 138.8 meq/L
PL (9 h): 133.8 mg/dL
RALB (9 h): 3.4 g/dL
TBIL (9 h): 0.4 mg/dL
TC (9 h): 76 mg/dL
TG (9 h): 26 mg/dL
TP (9 h): 5.3 g/dL
gamma-GTP (9 h): 1.8 IU/L
TERMINAL_BW (24 h): 231.8 g
APTT (24 h): 16.2 s
Bas (24 h): 0%
Eos (24 h): 1.2%
Fbg (24 h): 215.6 mg/dL
Hb (24 h): 12.8 g/dL
Ht (24 h): 38.7%
Lym (24 h): 72.2%
MCH (24 h): 21.6 pg
MCHC (24 h): 33%
MCV (24 h): 65.4 fL
Mono (24 h): 13%
Neu (24 h): 13.8%
PT (24 h): 10.9 s
Plat (24 h): 115.6 x10_4/uL
RBC (24 h): 592.6 x10_4/ul
Ret (24 h): 9.2%
WBC (24 h): 103.4 x10_2/uL
KIDNEY_L (24 h): 1 g
KIDNEY_R (24 h): 1 g
KIDNEY_TOTAL (24 h): 2 g
LIVER (24 h): 12.5 g
A/G (24 h): 2
ALP (24 h): 1036 IU/L
ALT (24 h): 34.4 IU/L
AST (24 h): 60 IU/L
BUN (24 h): 20 mg/dL
CRE (24 h): 0.5 mg/dL
Ca (24 h): 11.3 mg/dL
Cl (24 h): 104.4 meq/L
DBIL (24 h): 0 mg/dL
GLC (24 h): 207.4 mg/dL
IP (24 h): 8.9 mg/dL
K (24 h): 4.8 meq/L
LDH (24 h): 101.6 IU/L
Na (24 h): 138.6 meq/L
PL (24 h): 170.6 mg/dL
RALB (24 h): 3.8 g/dL
TBIL (24 h): 0.4 mg/dL
TC (24 h): 89.6 mg/dL
TG (24 h): 132.4 mg/dL
TP (24 h): 5.6 g/dL
gamma-GTP (24 h): 2.2 IU/L
